Data set [1] has as its target T1, human neutrophil elastase (Homo sapiens, UniProt P08246).
T1 sequence (P08246 30-247 limits assumed): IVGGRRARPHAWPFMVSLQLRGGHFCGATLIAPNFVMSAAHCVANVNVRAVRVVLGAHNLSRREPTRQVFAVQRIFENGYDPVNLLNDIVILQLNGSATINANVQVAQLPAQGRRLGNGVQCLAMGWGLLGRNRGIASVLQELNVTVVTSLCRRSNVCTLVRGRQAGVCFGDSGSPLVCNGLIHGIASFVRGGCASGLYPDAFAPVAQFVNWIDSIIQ
Put plainly: Peptide stability to neutrophil elastase (RP HPLC ESI MS). As to conditions: halftime with human neutrophil elastase 1 to 2 μg/mL in PBS, ambient temperature, normalized to halftime of the reference standard.

Another data set deals with T2, VPAC2 receptor (Homo sapiens, UniProt P41587).
T2 construct: The human T-lymphoid cell line Sup-Ti, which expresses the VPAC2 receptor; host or cells: Sup-T1 (Sup-Ti [sic]) human T-lymphoid cell line
T2 sequence (P41587 24-438): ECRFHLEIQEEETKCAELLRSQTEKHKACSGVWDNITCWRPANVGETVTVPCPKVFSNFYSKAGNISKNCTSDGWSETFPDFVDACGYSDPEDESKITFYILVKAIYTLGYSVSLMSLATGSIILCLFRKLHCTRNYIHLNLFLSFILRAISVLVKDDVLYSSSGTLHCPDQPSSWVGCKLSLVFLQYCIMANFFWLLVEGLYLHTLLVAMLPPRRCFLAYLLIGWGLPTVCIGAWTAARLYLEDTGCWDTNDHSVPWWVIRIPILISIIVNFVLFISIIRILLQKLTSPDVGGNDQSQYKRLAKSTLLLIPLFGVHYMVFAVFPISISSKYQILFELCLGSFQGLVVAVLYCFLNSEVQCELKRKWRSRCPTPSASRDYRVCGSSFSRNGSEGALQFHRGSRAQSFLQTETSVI
Kind of data set: Sup-T1 cAMP agonist assay. The note with it: human T-lymphoid cell line Sup-T1 expressing VPAC2 receptor; cAMP EIA; 5 min at room temperature; read-out: Sup-T1 cAMP EC50. The format is cell-based. How it is done:
The human T-lymphoid cell line Sup-Ti, which expresses the VPAC2 receptor, was obtained from the American Type Culture Collection (ATCC, CRL-1942) and maintained in growth medium at densities between 0.2 and 2×10^6 cells/ml in a 37° C. CO2 incubator. The growth medium was RPMI 1640 (Invitrogen) supplemented with 25 mM HEPES buffer and 10% fetal bovine serum (Gemini Bioproducts).
To evaluate VPAC2 agonist compound activity, cells in log-phase growth were washed once with growth medium at room temperature and plated into 96-well plates at a density of 4×10^4 cells per well in 150 uL of growth medium. Fifty uL of the compounds to be tested, prepared at appropriate concentrations in growth medium, were then added to designated wells. After 5 min at room temperature, the cells were lysed by adding 25 uL of lysis reagent 1A (cAMP Biotrak EIA system, Amersham Biosciences, RPN225) to each well. The 96-well plates were kept at room temperature for 10 min with shaking and then stored at 4° C. until analysis for cAMP (within 2 hr).
Cyclic AMP levels were determined in 100 uL of each lysate using the cAMP Biotrak Enzymeimmunoassay (EIA) kit according to the manufacture's instructions (Amersham Biosciences, RPN225). The activity of each VPAC2 agonist compound (EC50 value) was estimated by fitting the 7-concentration dose response data to a sigmoidal dose-response equation provided by the GraphPad Prism program (GraphPad Software, Inc.).

Structures are written as SMILES. Bridge positions count the residues as written; N and C are the ends. Square brackets hold non-standard residues; d marks the D form. Peptide text beside a SMILES is read from it. ξ: configuration not given here. Thr(3ξ) = CC(O)[C@H](N)C(=O)O; αMeV = CC(C)[C@](C)(N)C(=O)O; Nle = CCCC[C@H](N)C(=O)O

As usually defined, the EC50 is the concentration that produces a half-maximal response.

`CCCC[C@H](NC(=O)[C@H](CCC(N)=O)NC(=O)[C@H](CCCCN)NC(=O)[C@H](CCCNC(=N)N)NC(=O)[C@H](CC(C)C)NC(=O)[C@H](CCCCN)NC(=O)[C@@H](NC(=O)[C@H](Cc1ccc(O)cc1)NC(=O)[C@H](CC(N)=O)NC(=O)[C@H](CCC(=O)O)NC(=O)[C@@H](NC(=O)[C@H](Cc1ccccc1)NC(=O)[C@H](CC(=O)O)NC(=O)[C@H](C)NC(=O)[C@H](CC(=O)O)NC(=O)[C@H](CO)NC(=O)[C@H](Cc1c[nH]cn1)NC(C)=O)C(C)O)C(C)O)C(=O)N[C@@H](C)C(=O)N[C@@H](C)C(=O)N[C@@H](CCCCN)C(=O)N[C@H]1CCCCNC(=O)C[C@@H](C(=O)N[C@@H](CC(C)C)C(=O)N[C@@H](CCCCN)C(=O)N[C@@H](CCCCN)C(=O)NCC(=O)NCC(=O)N[C@H](C(N)=O)C(C)O)NC(=O)[C@H](CC(N)=O)NC(=O)[C@H](CC(C)C)NC(=O)[C@H](Cc2ccc(O)cc2)NC1=O` (some centres unmarked) [Example 3] (Ac-HSDADF[Thr(3ξ)]ENY[Thr(3ξ)]KLRKQ[Nle]AAKKYLNDLKKGG[Thr(3ξ)]-NH2; lactam 21-25): the Relative elastase stability in data set [1] was 4.5. The EC50 at VPAC2 receptor is 98 nM.
For `CCCC[C@H](NC(=O)[C@H](CCC(N)=O)NC(=O)[C@H](CCCCN)NC(=O)[C@H](CCCNC(=N)N)NC(=O)[C@H](CC(C)C)NC(=O)[C@H](CCCCN)NC(=O)[C@@H](NC(=O)[C@H](Cc1ccc(O)cc1)NC(=O)[C@H](CC(N)=O)NC(=O)[C@H](CCC(=O)O)NC(=O)[C@@H](NC(=O)[C@H](Cc1ccccc1)NC(=O)[C@H](CCC(N)=O)NC(=O)[C@H](C)NC(=O)[C@H](CC(=O)O)NC(=O)[C@H](CO)NC(=O)[C@H](Cc1c[nH]cn1)NC(C)=O)C(C)O)C(C)O)C(=O)N[C@@H](C)C(=O)N[C@@H](C)C(=O)N[C@@H](CCCCN)C(=O)N[C@H]1CCCCNC(=O)C[C@@H](C(=O)N[C@@H](CC(C)C)C(=O)N[C@@H](CCCCN)C(=O)N[C@@H](CCCCN)C(=O)NCC(=O)NCC(=O)N[C@H](C(N)=O)C(C)O)NC(=O)[C@H](CC(N)=O)NC(=O)[C@H](CC(C)C)NC(=O)[C@H](Cc2ccc(O)cc2)NC1=O` (some centres unmarked) [Example 4] (Ac-HSDAQF[Thr(3ξ)]ENY[Thr(3ξ)]KLRKQ[Nle]AAKKYLNDLKKGG[Thr(3ξ)]-NH2; lactam 21-25) the same measures were 3.9 and 85 nM.
On to `CCCC[C@H](NC(=O)[C@H](CCC(N)=O)NC(=O)[C@H](CCCCN)NC(=O)[C@H](CCCNC(=N)N)NC(=O)[C@H](CC(C)C)NC(=O)[C@H](CCCCN)NC(=O)[C@@H](NC(=O)[C@H](Cc1ccc(O)cc1)NC(=O)[C@H](CC(N)=O)NC(=O)[C@H](CCC(=O)O)NC(=O)[C@@H](NC(=O)[C@H](Cc1ccccc1)NC(=O)[C@@](C)(NC(=O)[C@H](C)NC(=O)[C@H](CC(=O)O)NC(=O)[C@H](CO)NC(=O)[C@H](Cc1c[nH]cn1)NC(C)=O)C(C)C)C(C)O)C(C)O)C(=O)N[C@@H](C)C(=O)N[C@@H](C)C(=O)N[C@@H](CCCCN)C(=O)N[C@H]1CCCCNC(=O)C[C@@H](C(=O)N[C@@H](CC(C)C)C(=O)N[C@@H](CC(C)C)C(=O)N[C@@H](CCCCN)C(=O)NCC(=O)NCC(=O)N[C@H](C(N)=O)C(C)O)NC(=O)[C@H](CC(N)=O)NC(=O)[C@H](CC(C)C)NC(=O)[C@H](Cc2ccc(O)cc2)NC1=O` (stereo partly drawn) [Example 20, Ac-His-Ser-Asp-Ala-MeVal-Phe-Thr-Glu-Asn-Tyr-thr-Lys-Leu-Arg-Lys-Gln-Nle-Ala-Ala-Lys-Lys-Tyr-Leu-Asn-Asp-Leu-Leu-Lys-Gly-Gly-Thr-NH2] (Ac-HSDA[αMeV]F[Thr(3ξ)]ENY[Thr(3ξ)]KLRKQ[Nle]AAKKYLNDLLKGG[Thr(3ξ)]-NH2; lactam 21-25), for which, in data set [1], the Relative elastase stability turned out to be 3.4.
Still for that read-out and setting: next, `CCCC[C@H](NC(=O)[C@H](CCC(N)=O)NC(=O)[C@H](CCCCN)NC(=O)[C@H](CCCNC(=N)N)NC(=O)[C@H](CC(C)C)NC(=O)[C@H](CCCCN)NC(=O)[C@@H](NC(=O)[C@H](Cc1ccc(O)cc1)NC(=O)[C@H](CC(N)=O)NC(=O)[C@H](CCC(=O)O)NC(=O)[C@@H](NC(=O)[C@H](Cc1ccccc1)NC(=O)[C@@](C)(NC(=O)[C@H](C)NC(=O)[C@H](CC(=O)O)NC(=O)[C@H](C)NC(=O)[C@H](Cc1c[nH]cn1)NC(C)=O)C(C)C)C(C)O)C(C)O)C(=O)N[C@@H](C)C(=O)N[C@@H](C)C(=O)N[C@@H](CCCCN)C(=O)N[C@H]1CCCCNC(=O)C[C@@H](C(=O)N[C@@H](CC(C)C)C(=O)N[C@@H](CCCCN)C(=O)N[C@@H](CCCCN)C(=O)NCC(=O)NCC(=O)N[C@H](C(N)=O)C(C)O)NC(=O)[C@H](CC(N)=O)NC(=O)[C@H](CC(C)C)NC(=O)[C@H](Cc2ccc(O)cc2)NC1=O` (stereo partly drawn) [Example 21, Ac-His-Ala-Asp-Ala-MeVal-Phe-Thr-Glu-Asn-Tyr-Thr-Lys-Leu-Arg-Lys-Gln-Nle-Ala-Ala-Lys-Lys-Tyr-Leu-Asn-Asp-Leu-Lys-Lys-Gly-Gly-Thr-NH2]: 5.7; `CCCC[C@H](NC(=O)[C@H](CCCNC(=N)N)NC(=O)[C@H](CCCCN)NC(=O)[C@H](CCCNC(=N)N)NC(=O)[C@H](CC(C)C)NC(=O)[C@H](CCCCN)NC(=O)[C@@H](NC(=O)[C@H](Cc1ccc(O)cc1)NC(=O)[C@H](CC(N)=O)NC(=O)[C@H](CCC(=O)O)NC(=O)[C@@H](NC(=O)[C@H](Cc1ccccc1)NC(=O)[C@@](C)(NC(=O)[C@H](C)NC(=O)[C@H](CC(=O)O)NC(=O)[C@H](CO)NC(=O)[C@H](Cc1c[nH]cn1)NC(C)=O)C(C)C)C(C)O)C(C)O)C(=O)N[C@@H](C)C(=O)N[C@@H](C)C(=O)N[C@@H](CCCCN)C(=O)N[C@H]1CCCCNC(=O)C[C@@H](C(=O)N[C@@H](CC(C)C)C(=O)N[C@@H](CCCCN)C(=O)N[C@@H](CCCCN)C(=O)NCC(=O)NCC(=O)N[C@H](C(N)=O)C(C)O)NC(=O)[C@H](CC(N)=O)NC(=O)[C@H](CC(C)C)NC(=O)[C@H](Cc2ccc(O)cc2)NC1=O` (stereo partly drawn) [Example 22, Ac-His-Ser-Asp-Ala-MeVal-Phe-Thr-Glu-Asn-Tyr-Thr-Lys-Leu-Arg-Lys-Arg-Nle-Ala-Ala-Lys-Lys-Tyr-Leu-Asn-Asp-Leu-Lys-Lys-Gly-Gly-Thr-NH2]: 1.8; `CCCC[C@H](NC(=O)[C@H](CCC(N)=O)NC(=O)[C@H](CCCCN)NC(=O)[C@H](CCCNC(=N)N)NC(=O)[C@H](CC(C)C)NC(=O)[C@H](CCCCN)NC(=O)[C@@H](NC(=O)[C@H](Cc1ccc(O)cc1)NC(=O)[C@H](CC(N)=O)NC(=O)[C@H](CCC(=O)O)NC(=O)[C@@H](NC(=O)[C@H](Cc1ccccc1)NC(=O)[C@@](C)(NC(=O)[C@H](C)NC(=O)[C@H](CC(=O)O)NC(=O)[C@H](C)NC(=O)[C@H](Cc1c[nH]cn1)NC(C)=O)C(C)C)C(C)O)C(C)O)C(=O)N[C@@H](C)C(=O)N[C@@H](C)C(=O)N[C@@H](CCCCN)C(=O)N[C@H]1CCCCNC(=O)C[C@@H](C(=O)N[C@@H](CC(C)C)C(=O)N[C@@H](CC(C)C)C(=O)N[C@@H](CCCCN)C(=O)NCC(=O)NCC(=O)N[C@H](C(N)=O)C(C)O)NC(=O)[C@H](CC(N)=O)NC(=O)[C@H](CC(C)C)NC(=O)[C@H](Cc2ccc(O)cc2)NC1=O` (stereo partly drawn) [Example 23, Ac-His-Ala-Asp-Ala-MeVal-Phe-Thr-Glu-Asn-Tyr-Thr-Lys-Leu-Arg-Lys-Gln-Nle-Ala-Ala-Lys-Lys-Tyr-Leu-Asn-Asp-Leu-Leu-Lys-Gly-Gly-Thr-NH2]: 3.6.

Source of the values: patent US20080096807A1, “Cyclic vasoactive intestinal peptide receptor-2 agonists” (priority 2006, published 2008).
